Results reported in patent publication US20220378706A1, “PHARMACEUTICAL COMPOSITION COMPRISING PDE9 INHIBITOR” (Eisai R&D Management Co., Ltd., priority 2017, published 2022).

How the values were obtained:
[1] = system: scopolamine-induced memory impairment in rats; assay: Scopolamine-induced memory impairment in rat novel object recognition test; type: in vivo; conditions: scopolamine 0.7 mg/kg i.p., mean ± SEM
Text: (Effects of Compound a Monomaleate Salt on Scopolamine-Induced Memory Impairment in Rat Novel Object Recognition Test)
The effects of orally administered Compound A monomaleate salt on scopolamine-induced memory impairment in a novel object recognition test in rats was examined.
Six-week-old male Long-Evans rats (Institute for Animal Reproduction) were used in this study. Before test day, rats were placed in each experimental apparatus once a day, on two consecutive days to habituate rats to the test chamber. […]
Following a 2-hour […] interval, a retention trial (T2) was conducted. […] Animal performance in T1 and T2 was recorded with a digital video camera, and the amount of time spent exploring each object was measured by manual stopwatches. […]
In novel object recognition test, the following novel object exploration ratio in T2 is considered as amnesic indexes reflecting the discrimination between the familiar and novel objects. These indexes are calculated according to the following formulas: […]
Data are expressed as the mean±SEM. The difference between the non-scopolamine treated control and scopolamine treated control groups were analyzed using unpaired t test. The effects of Compound A monomaleate salt on novel object exploration ratio in T2 was analyzed by one-way analysis of variance (ANOVA) followed by the Dunnett multiple comparison test. […]

[2] = Single dose clinical study: safety assessments (adverse events); type: in vivo, human; conditions: for incidence of any TEAEs: Part B 100 mg Cohort
Text: Safety assessments consisted of monitoring and recording all adverse events (AEs) and serious adverse events (SAEs); laboratory evaluation for hematology, blood chemistry, and urine values; periodic measurement of vital signs (including orthostatic changes in blood pressure [BP] and heart rate [HR]) and electrocardiograms (ECGs); and the performance of physical examinations.
Safety data evaluated included AEs, clinical laboratory results, vital signs, and ECGs. Treatment emergent adverse events (TEAEs) were summarized by presenting the incidence of AEs for each cohort and dose group. For the laboratory, vital signs, and ECG data in all cohorts in any treatment period, the baseline was the values recorded immediately prior to dosing with study drug in that treatment period.

**Q.** For `COc1ncc(C)c(-c2ccc3c(c2)[nH]c(=O)c2cnn([C@H]4CCOC4)c23)c1C` [Compound A, (S)-7-(2-methoxy-3,5-dimethylpyridin-4-yl)-1-(tetrahydrofuran-3-yl)-1H-pyrazolo[4,3-c]quin olin-4(5H)-one], which “Novel object exploration ratio in T2” value ([1]; 3.3 mg/kg oral) is on record?
**A.** 68.5 ± 2.0 %

**Q.** What about the “Novel object exploration ratio in T2” value ([1]; 10 mg/kg oral) of the same compound?
**A.** 68.5 ± 1.6 %

**Q.** What about the tolerability ([2]; Part A healthy adult subjects, single oral doses 10 to 1200 mg) of the same compound?
**A.** well tolerated

**Q.** What about the TEAE back pain ([2]; Part B) of the same compound?
**A.** 20.8%

**Q.** What about the TEAE dizziness ([2]; Part B) of the same compound?
**A.** 16.7%

**Q.** And the TEAE headache ([2]; Part B)?
**A.** 29.2%

**Q.** And the TEAE musculoskeletal stiffness ([2]; Part B)?
**A.** 20.8%

**Q.** What about the TEAE nausea ([2]; Part B) of the same compound?
**A.** 12.5%

**Q.** And the “TEAE pain in extremity” value ([2]; Part B)?
**A.** 8.3%

**Q.** What about the “TEAE post lumbar puncture syndrome” value ([2]; Part B) of the same compound?
**A.** 37.5%

**Q.** And the TEAE procedural nausea ([2]; Part B)?
**A.** 8.3%

**Q.** And the TEAE procedural vomiting ([2]; Part B)?
**A.** 8.3%

**Q.** And the TEAE vomiting ([2]; Part B)?
**A.** 20.8%

**Q.** And the “incidence of any TEAEs” value ([2]; fasted state)?
**A.** 66.7%

**Q.** And the “incidence of any TEAEs” value ([2]; fed state)?
**A.** 50%

**Q.** And the tolerability ([2]; Part B healthy adults with serial CSF sampling, single oral doses 50 to 400 mg)?
**A.** well tolerated

**Q.** And the “subjects with at least 1 TEAE” value ([2]; Part B, both treatment periods, all doses)?
**A.** 83.3%

**Q.** And the tolerability ([2]; Part C healthy elderly subjects, single dose 100 mg)?
**A.** well tolerated

**Q.** And the “subjects with at least 1 TEAE” value ([2]; Part C healthy elderly, 100 mg)?
**A.** 16.7%

**Q.** And the TEAE headache ([2]; Part D)?
**A.** 16.7%

**Q.** What about the tolerability ([2]; Part D healthy Japanese adult subjects, single oral doses 25 to 400 mg) of the same compound?
**A.** well tolerated

**Q.** What about the “subjects with at least 1 TEAE” value ([2]; Part D, all doses) of the same compound?
**A.** 38.9%

**Q.** What about the TEAE dizziness ([2]; Parts A and C) of the same compound?
**A.** 5.6%

**Q.** And the TEAE headache ([2]; Parts A and C)?
**A.** 11.6%

**Q.** And the “TEAE increase in orthostatic heart rate response” value ([2]; Parts A and C)?
**A.** 3.7%

**Q.** What about the TEAE insomnia ([2]; Parts A and C) of the same compound?
**A.** 5.6%

**Q.** What about the TEAE paresthesia ([2]; Parts A and C) of the same compound?
**A.** 3.7%

**Q.** What about the “TEAE postural orthostatic tachycardia” value ([2]; Parts A and C) of the same compound?
**A.** 5.6%

**Q.** What about the “deaths or SAEs” value ([2]; Parts A and C) of the same compound?
**A.** no deaths or SAEs

**Q.** And the “subjects with at least 1 TEAE” value ([2]; Parts A and C, all doses)?
**A.** 42.6%

**Q.** What about the maximum tolerated dose ([2]; single oral doses 10 to 1200 mg, healthy adults) of the same compound?
**A.** not reached
